Where a name gives a salt, the structure may show the parent alone.
Tested on: lean overnight fasted rats
Assay: Fasted-refed acute feeding assay (reduction of food intake)
Format: in vivo, rat
Settings: 10 mg/kg p.o., single dose, measured at time points from 30 to 240 minutes
Excerpt: Evaluation of Compound's Efficacy on the Reduction of Food Intake (Suppression of Appetite) in Lean Overnight Fasted Rats
Fasted-Refed Acute Feeding Assay
The purpose of this protocol is to determine the effect of a single dose of an unknown compound on food consumption of lean overnight fasted rats. The fasted-refed rat model is frequently used in the field of obesity to identify compounds with potential for anorectic effects. This animal model has been successfully used in the identification and characterization of the efficacy profile of compounds that are or have been used in the management of body weight in obese humans (see, e.g., Balvet et al., Gen. Pharmacol. 13:293-297, 1982; Grignaschi et al., Br. J. Pharmacol. 127:1190-1194, 1999; McTavish and Heel, Drug 43:713-733, 1992; Rowland et al., Life Sci. 36:2295-2300, 1985). […]
The vehicle test: The rats are grouped based upon their performance on a vehicle test. […] After 1 hour, the spillage is returned to the food jar and the amount of food consumed is determined. […]
The efficacy test: The rats are fasted overnight during the dark phase (total of approx. 16-18 hr). […] Food intake is recorded 30, 60, 90, 180, and 240 minutes post-food return. […] The amount of food consumed is determined for each time point. Difference between treatment group is determined using appropriate statistical analysis.

Structure (SMILES)	food consumption was reduced (relative to the food consumption observed for the vehicle control group)
COc1ccc(-c2c(C)c(C(=O)NNc3ccc(C(F)(F)F)cc3)c(C)n2-c2ccccc2Cl)cc1.Cl [Entry 43, 1-(2-chlorophenyl)-5-(4-methoxyphenyl)-2,4-dimethyl-N′-[4-(trifluoromethyl)phenyl]-1H-pyrrole-3-carbohydrazide hydrochloride]	up to 35%
Cc1c(C(=O)NN2CCCCC2)cc(-c2ccc(Cl)cc2)n1-c1ccccc1Cl [Entry 23, 1-(2-chlorophenyl)-5-(4-chlorophenyl)-2-methyl-N-(1-piperidinyl)-1H-pyrrole-3-carboxamide hydrochloride]	up to 25%

— patent publication US20040267028A1, “Preparation and use of pyrrole derivatives for treating obesity” (priority 2001, published 2004)
